Reference: the CheMixHub ionic liquid set
± gives the uncertainty stated by the source.

Test: xn = mol fraction of the nth substance listed

CCCCCCCCCCCCCCCC[n+]1ccccc1.O=C([O-])C(O)c1ccccc1 + C[C@H](N)C(=O)O + O
electrical conductivity [S/m], 101 kPa
Details	293.15 K	298.15 K	303.15 K	308.15 K	313.15 K
x1 = 1.08e-06, x2 = 0	0.00061 ± 0.00098	0.00068 ± 0.0011	0.00076 ± 0.0012	0.00083 ± 0.0013	0.0009 ± 0.0015
x1 = 1.09e-06, x2 = 0.0009002	0.0006 ± 0.00087	0.00069 ± 0.001	0.00077 ± 0.0011	0.00087 ± 0.0012	0.00098 ± 0.0013
x1 = 1.09e-06, x2 = 0.001799	0.00068 ± 0.00073	0.00078 ± 0.00082	0.00088 ± 0.00091	0.001 ± 0.001	0.0011 ± 0.0011
x1 = 1.98e-06, x2 = 0	0.001 ± 0.001	0.0012 ± 0.0012	0.0013 ± 0.0013	0.0014 ± 0.0014	0.0016 ± 0.0015
x1 = 2.17e-06, x2 = 0.0009002	0.00107 ± 0.00085	0.00122 ± 0.00096	0.0014 ± 0.0011	0.0015 ± 0.0012	0.0017 ± 0.0013
x1 = 2.18e-06, x2 = 0.001799	0.00104 ± 0.00074	0.0012 ± 0.00085	0.00135 ± 0.00095	0.0015 ± 0.001	0.0017 ± 0.0011
x1 = 2.88e-06, x2 = 0	0.00147 ± 0.00099	0.0016 ± 0.0011	0.0018 ± 0.0012	0.002 ± 0.0014	0.0022 ± 0.0015
x1 = 3.26e-06, x2 = 0.0009002	0.0015 ± 0.00089	0.0017 ± 0.001	0.0019 ± 0.0011	0.0021 ± 0.0012	0.0024 ± 0.0014
x1 = 3.45e-06, x2 = 0.001799	0.00147 ± 0.00078	0.00167 ± 0.00088	0.00187 ± 0.00097	0.0021 ± 0.0011	0.0024 ± 0.0012
x1 = 3.96e-06, x2 = 0	0.0019 ± 0.001	0.0022 ± 0.0011	0.0024 ± 0.0013	0.0026 ± 0.0014	0.0029 ± 0.0015
x1 = 4.52e-06, x2 = 0.0009002	0.00197 ± 0.00089	0.0022 ± 0.001	0.0025 ± 0.0011	0.0028 ± 0.0012	0.0031 ± 0.0014
x1 = 4.54e-06, x2 = 0.001799	0.0019 ± 0.00081	0.00216 ± 0.0009	0.0024 ± 0.001	0.0027 ± 0.0011	0.003 ± 0.0012
x1 = 4.69e-06, x2 = 0	0.0023 ± 0.001	0.0026 ± 0.0011	0.0029 ± 0.0013	0.0031 ± 0.0014	0.0035 ± 0.0015
x1 = 5.61e-06, x2 = 0.0009002	0.00243 ± 0.00087	0.00275 ± 0.00098	0.0031 ± 0.0011	0.0034 ± 0.0012	0.0038 ± 0.0013
x1 = 5.81e-06, x2 = 0.001799	0.00234 ± 0.00081	0.00265 ± 0.00092	0.0029 ± 0.001	0.0033 ± 0.0011	0.0036 ± 0.0012
x1 = 5.95e-06, x2 = 0	0.00281 ± 0.00098	0.0032 ± 0.0011	0.0035 ± 0.0012	0.0038 ± 0.0013	0.0042 ± 0.0015
x1 = 6.87e-06, x2 = 0.0009002	0.00295 ± 0.00089	0.0033 ± 0.001	0.0037 ± 0.0011	0.0041 ± 0.0012	0.0045 ± 0.0014
x1 = 7.21e-06, x2 = 0	0.00341 ± 0.00095	0.0038 ± 0.0011	0.0042 ± 0.0012	0.0046 ± 0.0013	0.0051 ± 0.0015
x1 = 7.26e-06, x2 = 0.001799	0.00287 ± 0.00076	0.00323 ± 0.00085	0.0036 ± 0.00096	0.004 ± 0.0011	0.0044 ± 0.0012
x1 = 8.32e-06, x2 = 0.0009002	0.00346 ± 0.00082	0.00391 ± 0.00094	0.0043 ± 0.001	0.0048 ± 0.0012	0.0053 ± 0.0013
x1 = 8.71e-06, x2 = 0.001799	0.00335 ± 0.00071	0.00379 ± 0.00081	0.00423 ± 0.00091	0.0047 ± 0.001	0.0052 ± 0.0012
x1 = 8.83e-06, x2 = 0	0.00406 ± 0.00092	0.0046 ± 0.001	0.005 ± 0.0011	0.0055 ± 0.0013	0.006 ± 0.0014
x1 = 9.58e-06, x2 = 0.0009002	0.00394 ± 0.00075	0.00445 ± 0.00086	0.00497 ± 0.00097	0.0055 ± 0.0011	0.0061 ± 0.0012
x1 = 1.045e-05, x2 = 0	0.00469 ± 0.00089	0.0053 ± 0.001	0.0058 ± 0.0011	0.0065 ± 0.0012	0.0071 ± 0.0014
x1 = 1.071e-05, x2 = 0.001799	0.0039 ± 0.00071	0.00441 ± 0.00081	0.00494 ± 0.00091	0.0055 ± 0.001	0.0061 ± 0.0012
x1 = 1.121e-05, x2 = 0.0009002	0.00434 ± 0.00075	0.00493 ± 0.00085	0.00552 ± 0.00096	0.0062 ± 0.0011	0.0069 ± 0.0012
x1 = 1.207e-05, x2 = 0	0.00516 ± 0.00088	0.0058 ± 0.001	0.0064 ± 0.0011	0.0071 ± 0.0012	0.0079 ± 0.0014
x1 = 1.216e-05, x2 = 0.001799	0.00419 ± 0.00069	0.00476 ± 0.00078	0.00533 ± 0.00088	0.00596 ± 0.00099	0.0067 ± 0.0011
x1 = 1.284e-05, x2 = 0.0009002	0.00475 ± 0.00075	0.0054 ± 0.00085	0.006 ± 0.001	0.0067 ± 0.0011	0.0075 ± 0.0012
x1 = 1.351e-05, x2 = 0	0.00562 ± 0.00086	0.00631 ± 0.00097	0.007 ± 0.0011	0.0077 ± 0.0012	0.0085 ± 0.0013
x1 = 1.361e-05, x2 = 0.001799	0.00459 ± 0.00069	0.0052 ± 0.00079	0.00583 ± 0.00088	0.00654 ± 0.00098	0.0073 ± 0.0011
x1 = 1.411e-05, x2 = 0.0009002	0.00513 ± 0.00078	0.0058 ± 0.00088	0.00649 ± 0.00099	0.0072 ± 0.0011	0.0081 ± 0.0012
x1 = 1.478e-05, x2 = 0	0.00603 ± 0.0009	0.0068 ± 0.001	0.0075 ± 0.0011	0.0083 ± 0.0012	0.0092 ± 0.0013
x1 = 1.506e-05, x2 = 0.001799	0.00495 ± 0.00073	0.00559 ± 0.00081	0.00626 ± 0.00092	0.007 ± 0.001	0.0079 ± 0.0011
x1 = 1.519e-05, x2 = 0.0009002	0.00545 ± 0.0009	0.00616 ± 0.00095	0.0069 ± 0.0011	0.0077 ± 0.0012	0.0085 ± 0.0013
x1 = 1.622e-05, x2 = 0	0.00644 ± 0.00092	0.0072 ± 0.001	0.008 ± 0.0011	0.0089 ± 0.0013	0.0098 ± 0.0014
x1 = 1.646e-05, x2 = 0.0009002	0.00578 ± 0.00087	0.00652 ± 0.00096	0.0073 ± 0.0011	0.0081 ± 0.0012	0.009 ± 0.0013
x1 = 1.651e-05, x2 = 0.001799	0.00526 ± 0.00073	0.00598 ± 0.00083	0.00669 ± 0.00094	0.0075 ± 0.001	0.0083 ± 0.0011
x1 = 1.766e-05, x2 = 0	0.00687 ± 0.00093	0.0077 ± 0.001	0.0085 ± 0.0012	0.0094 ± 0.0013	0.0104 ± 0.0014
x1 = 1.778e-05, x2 = 0.001799	0.00557 ± 0.00075	0.00629 ± 0.00085	0.00707 ± 0.00096	0.0079 ± 0.0011	0.0088 ± 0.0011

CCCCn1cc[nH+]c1.O=S(=O)([N-]S(=O)(=O)C(F)(F)F)C(F)(F)F + N
313.2 K, 101 kPa
Details	viscosity [mPa·s]
x1 = 0.2924	9.9 ± 1.1
x1 = 0.337	12.9 ± 1.4
x1 = 0.4007	19.3 ± 2.1
x1 = 0.4495	24.3 ± 2.6
x1 = 0.477	27.7 ± 3
x1 = 0.4904	29.1 ± 3.1
x1 = 0.575	38.7 ± 4.1
x1 = 0.6515	45.8 ± 4.9
x1 = 0.7028	51.3 ± 5.5
x1 = 0.7906	54.5 ± 5.9
x1 = 0.8999	52.5 ± 5.7
x1 = 1	47.2 ± 5.1

C[S+](C)C.O=S(=O)([N-]S(=O)(=O)C(F)(F)F)C(F)(F)F + N#CCCCC#N
101 kPa, x1 = 0.2085
Details	viscosity [mPa·s]
278 K	21.84 ± 0.29
303 K	9.44 ± 0.12
318 K	6.433 ± 0.078
328 K	5.159 ± 0.062
333 K	4.664 ± 0.055
338 K	4.238 ± 0.05
348 K	3.558 ± 0.042

CCCCCC[n+]1ccn(C)c1.F[B-](F)(F)F + NC(N)=O + O
298.15 K, 100 kPa
Details	viscosity [mPa·s]
x2 = 0, x1 = 0.0153	2.79 ± 0.14
x2 = 0.008814, x3 = 0.9759	2.96 ± 0.15
x2 = 0.01758, x3 = 0.9671	2.88 ± 0.15
x2 = 0.02591, x3 = 0.9588	2.91 ± 0.15
x2 = 0.03448, x3 = 0.9502	2.92 ± 0.15
x2 = 0.04235, x3 = 0.9424	2.94 ± 0.15
